Results taken from PMC12249582, “Ruxolitinib Modulates P-Glycoprotein Function, Delays T Cell Activation, and Impairs CCL19 Chemokine-Directed Migration in Human Cytotoxic T Lymphocytes” (International Journal of Molecular Sciences, 2025).
pIC50: −log10 of the molar value.

Target: T1, P-glycoprotein (Pgp/ABCB1) (Homo sapiens, UniProt P08183)
T1 construct: human Pgp stably expressed in NIH-3T3 MDR1 cells (cells and raw membrane preparations)
Assay: calcein-AM efflux inhibition in NIH-3T3 MDR1 cells (IC50); vanadate-sensitive ATPase stimulation in Pgp membranes
Assay type: cell-based

T1 sequence (P08183 whole entry): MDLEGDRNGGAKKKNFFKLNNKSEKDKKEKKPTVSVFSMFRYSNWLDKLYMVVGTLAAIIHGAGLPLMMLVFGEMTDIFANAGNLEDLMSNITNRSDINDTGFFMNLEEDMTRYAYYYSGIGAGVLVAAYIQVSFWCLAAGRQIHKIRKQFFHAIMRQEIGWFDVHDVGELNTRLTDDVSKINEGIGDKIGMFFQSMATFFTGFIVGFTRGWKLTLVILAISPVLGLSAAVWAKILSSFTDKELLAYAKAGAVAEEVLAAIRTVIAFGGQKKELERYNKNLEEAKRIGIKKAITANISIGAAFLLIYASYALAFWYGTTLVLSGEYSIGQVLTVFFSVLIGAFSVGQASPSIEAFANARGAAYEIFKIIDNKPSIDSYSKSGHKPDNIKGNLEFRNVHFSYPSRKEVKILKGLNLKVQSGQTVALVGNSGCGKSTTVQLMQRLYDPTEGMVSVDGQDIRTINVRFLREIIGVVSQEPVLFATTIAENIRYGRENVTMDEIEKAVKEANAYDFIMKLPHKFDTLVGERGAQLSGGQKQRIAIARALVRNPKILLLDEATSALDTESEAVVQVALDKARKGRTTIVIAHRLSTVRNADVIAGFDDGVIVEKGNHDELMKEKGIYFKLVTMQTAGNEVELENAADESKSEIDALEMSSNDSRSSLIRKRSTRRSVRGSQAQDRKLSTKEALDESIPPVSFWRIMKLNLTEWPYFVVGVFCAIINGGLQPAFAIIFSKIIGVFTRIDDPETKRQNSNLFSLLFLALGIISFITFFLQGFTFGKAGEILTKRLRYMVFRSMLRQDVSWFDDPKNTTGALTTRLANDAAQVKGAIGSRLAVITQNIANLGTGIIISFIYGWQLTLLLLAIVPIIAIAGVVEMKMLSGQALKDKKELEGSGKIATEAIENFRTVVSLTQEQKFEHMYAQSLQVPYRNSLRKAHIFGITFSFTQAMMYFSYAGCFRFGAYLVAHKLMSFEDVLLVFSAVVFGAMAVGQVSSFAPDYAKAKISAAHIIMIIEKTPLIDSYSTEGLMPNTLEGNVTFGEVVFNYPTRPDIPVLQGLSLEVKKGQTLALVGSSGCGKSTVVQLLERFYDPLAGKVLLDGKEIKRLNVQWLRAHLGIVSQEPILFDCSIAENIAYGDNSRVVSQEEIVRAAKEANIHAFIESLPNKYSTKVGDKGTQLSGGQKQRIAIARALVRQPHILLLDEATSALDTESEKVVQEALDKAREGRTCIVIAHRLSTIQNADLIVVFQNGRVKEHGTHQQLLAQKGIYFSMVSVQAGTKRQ

N#CC[C@H](C1CCCC1)n1cc(-c2ncnc3[nH]ccc23)cn1 [RUX, ruxolitinib]
pIC50: ~4.89
